According to article PMC3894558, “Chemical signatures and new drug targets for gametocytocidal drug development” (Scientific Reports, 2014):
Where a name gives a salt, the structure may show the parent alone. Read-outs that look alike come from different tables or passages of the source.

Legend:
[1] = test system: P. falciparum 3D7 gametocytes; assay: alamarBlue gametocyte viability assay, strain 3D7; assay type: cell-based, Plasmodium falciparum; conditions: for Emax: read-out: Activity against gametocytes Efficacy (% response)
Method: Asexual parasites of P. falciparum strain 3D7 were cultured as described previously[55]. Briefly, gametocyte cultures were set up at 0.1% parasitemia and on days 9–10 treated with 50 mM N-acetylglucosamine (NAG) to block further asexual growth. Stage III–V gametocytes were isolated by Percoll density gradient centrifugation on day 12 and returned to culture for 24 hrs before being used in the assay[9]. […] Growth medium was made with Dulbecco's Modified Eagle Medium with 10% fetal bovine serum (FBS).
Compound screening experiments were performed as previously described[11]. Briefly, 2.5 μl/well incomplete medium was dispensed into each well of 1,536-well plates using the Multidrop Combi followed by 23 nl compound transferring using the NX-TR Pintool (WAKO Scientific Solutions, San Diego, CA). Then, 2.5 μl/well of gametocytes was dispensed with a seeding density of 20,000 cells/well using the Multidrop Combi. The assay plates were incubated for 72 hrs at 37°C with 5% CO2.
The primary screen data was analyzed using customized software developed internally[58]. IC50 values were calculated using the Prism software (Graphpad Software, Inc. San Diego, CA). Data were presented as means ± SEM with n = 3 independent experiments.

HepG2 cells = assay: cells; conditions: Homo sapiens; for Emax: HepG2, read-out: % Max response; for IC50: HepG2, read-out: IC50 in HepG2 cells
From the text: Growth medium was made with Dulbecco's Modified Eagle Medium with 10% fetal bovine serum (FBS).

[2] = test system: P. falciparum Dd2 gametocytes; assay: alamarBlue gametocyte viability assay, strain Dd2; assay type: cell-based, Plasmodium falciparum
Method: (§1) Briefly, gametocyte cultures were set up at 0.1% parasitemia and on days 9–10 treated with 50 mM N-acetylglucosamine (NAG) to block further asexual growth. Stage III–V gametocytes were isolated by Percoll density gradient centrifugation on day 12 and returned to culture for 24 hrs before being used in the assay[9].
(§2) Briefly, 2.5 μl/well incomplete medium was dispensed into each well of 1,536-well plates using the Multidrop Combi followed by 23 nl compound transferring using the NX-TR Pintool (WAKO Scientific Solutions, San Diego, CA). Then, 2.5 μl/well of gametocytes was dispensed with a seeding density of 20,000 cells/well using the Multidrop Combi. The assay plates were incubated for 72 hrs at 37°C with 5% CO2.

[3] = test system: P. falciparum HB3 gametocytes; assay: alamarBlue gametocyte viability assay, strain HB3; assay type: cell-based, Plasmodium falciparum
Method: as §1, §2

[4] = test system: P. falciparum asexual parasites; set-up: method as in earlier work; conditions: SI Table 3, previous screens, cited from earlier work; for IC50: read-out: Activity against asexual parasites IC50
[5] = Plasmodium falciparum, 3D7, P. falciparum 3D7 gametocytes, mean of at least 3 independent experiments, read-out: Gametocyte IC50
[6] = Plasmodium falciparum, DD2, strain profiling, 11 concentrations, 1:3 dilution, three times, read-out: Dd2-gametocytes IC50
[7] = Plasmodium falciparum, HB3, strain profiling, 11 concentrations, 1:3 dilution, three times, read-out: HB3-gametocytes IC50
[8] = Plasmodium falciparum, DD2, read-out: Dd2-gametocytes IC50
[9] = Plasmodium falciparum, 3D7, SI Table 3, structure clusters
[10] = Plasmodium falciparum, 3D7, SI Table 3, structure clusters, read-out: Activity against gametocytes IC50
[11] = Plasmodium falciparum, 3D7, strain profiling, 11 concentrations, 1:3 dilution, three times, read-out: 3D7-gametocytes IC50
[12] = Plasmodium falciparum, HB3, read-out: HB3-gametocytes IC50
[13] = strain profiling, 11 concentrations, 1:3 dilution, three times, read-out: 3D7-gametocytes IC50
[14] = strain profiling, 11 concentrations, 1:3 dilution, three times, read-out: Dd2-gametocytes IC50
[15] = strain profiling, 11 concentrations, 1:3 dilution, three times, read-out: HB3-gametocytes IC50
[16] = Plasmodium falciparum, P. falciparum 3D7 gametocytes, mean of at least 3 independent experiments, read-out: Gametocyte IC50

Row | Molecule | IC50 [1, 5] | Emax (HepG2 cells) | IC50 (HepG2 cells) | IC50 [2, 6] | IC50 [3, 7] | IC50 [1, 11] | also measured
1 | CN(C)C/C=C/C(=O)Nc1cc2c(Nc3ccc(F)c(Cl)c3)ncnc2cc1O[C@H]1CCOC1 [Afatinib] | 0.935 µM | -100% | 18.7 µM | 2.96 µM | 4.18 µM |  | 
2 | CO[C@H]1/C=C\C=C(/C)C(=O)NC2=CC(=O)C(NCCN(C)C)=C(C[C@@H](C)C[C@H](OC)[C@H](O)[C@@H](C)/C=C(\C)[C@@H]1OC(N)=O)C2=O [Alvespimycin] | 0.074 µM | -94% | 0.118 µM |  | 0.235 µM |  | IC50 [2, 8]: 0.094 µM
3 | CN(C)CCC=C1c2ccccc2CCc2ccccc21 [Amitriptyline hydrochloride] |  |  |  |  |  |  | Activity against asexual parasites Efficacy (% response) [4]: -82.37 % response; IC50 [4]: 11.2 µM
4 | CC(C)C[C@H](NC(=O)[C@H](Cc1ccccc1)NC(=O)c1cnccn1)B(O)O [Bortezomib] | 0.118 µM | -82% | 0.148 µM | 0.094 µM | 0.074 µM |  | 
5 | C#Cc1cccc(Nc2ncnc3cc(OC)c(OCCCCCCC(=O)NO)cc23)c1 [CUDC-101] | 0.833 µM | -76% | 6.79 µM | 0.429 µM | 0.152 µM |  | fold more potent against HB3 compared to 3D7 gametocytes [3]: 5.5 fold
6 | C=CCN1C[C@H](C(=O)N(CCCN(C)C)C(=O)NCC)C[C@@H]2c3cccc4[nH]cc(c34)C[C@H]21 [Cabergoline, reference compound] |  |  |  |  |  |  | Emax [1, 9]: 80.1%; IC50 [1, 10]: 17.8 µM; Activity against asexual parasites Efficacy (% response) [4]: -63.65 % response; IC50 [4]: 17.8 µM
7 | CNc1ccc2oc(C[C@H]3O[C@@]4(CC[C@H]3C)O[C@H]([C@H](C)C(=O)c3ccc[nH]3)[C@H](C)C[C@H]4C)nc2c1C(=O)O [Calcimycin] |  |  |  |  |  | 2.64 µM | IC50 [2, 8]: 1.66 µM; IC50 [3, 12]: 5.9 µM
8 | CC(C)C[C@H](NC(=O)[C@H](CCc1ccccc1)NC(=O)CN1CCOCC1)C(=O)N[C@@H](Cc1ccccc1)C(=O)N[C@@H](CC(C)C)C(=O)[C@@]1(C)CO1 [Carfilzomib] | 0.012 µM | -79% | 1.18 µM | 0.002 µM | 0.003 µM | 0.004 µM | 
9 | CN(C)CCCN1c2ccccc2CCc2ccc(Cl)cc21 [Clomipramine hydrochloride] |  |  |  |  |  |  | Activity against asexual parasites Efficacy (% response) [4]: inactive; Activity against asexual parasites IC50 [4]: inactive
10 | CN(C)CCCN1c2ccccc2CCc2ccc(Cl)cc21 [Clomipramine] |  |  |  |  |  |  | Activity against asexual parasites Efficacy (% response) [4]: inactive; Activity against asexual parasites IC50 [4]: inactive
11 | Cc1cc(NC2CCCCC2)nc(-n2nc(C)cc2C)n1 [CyPPA] |  |  |  |  |  |  | IC50 [1, 13]: 0.469 µM; IC50 [2, 14]: 0.59 µM; IC50 [3, 15]: 0.743 µM
12 | CN(C)CCC=C1c2ccccc2C=Cc2ccccc21 [Cyclobenzaprine hydrochloride, reference compound] |  |  |  |  |  |  | Emax [1, 9]: 94.8%; IC50 [1, 10]: 5.62 µM; IC50 ([1]; SI Table 3, structure clusters, read-out: Activity against gametocytes IC50): 10 µM; Activity against asexual parasites Efficacy (% response) [4]: inactive; Activity against asexual parasites IC50 [4]: inactive
13 | CN1CCC(=C2c3ccccc3C=Cc3ccccc32)CC1 [Cyproheptadine hydrochloride] |  |  |  |  |  |  | Activity against gametocytes Efficacy (% response) ([1]; SI Table 3, structure clusters): -80.99 % response; Activity against asexual parasites Efficacy (% response) [4]: inactive; Activity against asexual parasites IC50 [4]: inactive
14 | c1ccc2c(c1)[I+]c1ccccc1-2 [Diphenyleneiodonium] |  |  |  |  | 0.296 µM | 0.132 µM | IC50 [2, 8]: 0.209 µM
15 | [O-][n+]1ccccc1SSc1cccc[n+]1[O-] [Dipyrithione] | 0.263 µM | -93% | 10.8 µM |  | 0.743 µM |  | IC50 [2, 8]: 0.59 µM
16 | CCN(CC)C(=S)SSC(=S)N(CC)CC [Disulfiram] |  |  |  | 0.096 µM | 0.108 µM | 0.096 µM | 
17 | CN(C)CCCN1c2ccccc2CCc2ccccc21 [Imipramine hydrochloride] |  |  |  |  |  |  | Activity against asexual parasites Efficacy (% response) [4]: inactive; Activity against asexual parasites IC50 [4]: inactive
18 | CO[C@@H]1[C@@H](OC)[C@H](C)[C@@](O)(CC(=O)O)O[C@H]1[C@H](C)[C@H]1O[C@@]2(CC[C@@](C)([C@H]3CC[C@@](C)([C@@H]4O[C@@H]([C@H]5O[C@](C)(O)[C@H](C)C[C@@H]5C)C[C@@H]4O[C@@H]4C[C@H](OC)[C@@H](OC)[C@H](C)O4)O3)O2)C[C@H](O)[C@H]1C [Maduramicin ammonium] |  |  |  | 0.037 µM | 0.012 µM | 0.024 µM | 

Row | Molecule | IC50 [1, 5] | Emax (HepG2 cells) | IC50 (HepG2 cells) | IC50 [2, 6] | IC50 [3, 7] | IC50 [1, 11] | also measured
19 | CO[C@@H]1[C@@H](OC)[C@H](C)[C@@](O)(CC(=O)O)O[C@H]1[C@H](C)[C@H]1O[C@@]2(CC[C@@](C)([C@H]3CC[C@@](C)([C@@H]4O[C@@H]([C@H]5O[C@](C)(O)[C@H](C)C[C@@H]5C)C[C@@H]4O[C@@H]4C[C@H](OC)[C@@H](OC)[C@H](C)O4)O3)O2)C[C@H](O)[C@H]1C [Maduramicin] | 0.047 µM | -42% | 37.2 µM |  |  |  | 
20 | OC(c1cc(C(F)(F)F)nc2c(C(F)(F)F)cccc12)C1CCCCN1 (centres unmarked) [Mefloquine hydrochloride] |  |  |  | 0.053 µM | 0.059 µM | 0.074 µM | 
21 | OC(c1cc(C(F)(F)F)nc2c(C(F)(F)F)cccc12)C1CCCCN1 (centres unmarked) [Mefloquine] | 0.833 µM | -97% | 29.6 µM |  |  |  | 
22 | CCNC(=O)c1noc(-c2cc(C(C)C)c(O)cc2O)c1-c1ccc(CN2CCOCC2)cc1 [NVP-AUY922] | 0.047 µM | -88% | 0.148 µM | 0.047 µM | 0.042 µM |  | 
23 | CC[C@@H](C(=O)O)[C@@H]1O[C@@H]([C@@H](C)[C@H](O)[C@H](C)C(=O)[C@H](CC)[C@H]2O[C@]3(C=C[C@@H](O)[C@]4(CC[C@@](C)([C@H]5CC[C@](O)(CC)[C@H](C)O5)O4)O3)[C@H](C)C[C@@H]2C)[C@@H](C)C[C@@H]1C [Narasin] | 0.05 µM | -98% | 27 µM |  | 0.136 µM |  | IC50 [2, 8]: 0.076 µM
24 | CCN(CC)Cc1nccn1-c1ccc([N+](=O)[O-])cc1C(=O)c1ccccc1Cl [Nizofenone] |  |  |  |  |  | 23.5 µM | IC50 [2, 8]: 16.6 µM; IC50 [3, 12]: 14.8 µM
25 | COC(=O)C[C@](O)(CCCC(C)(C)O)C(=O)O[C@@H]1C(OC)=C[C@]23CCCN2CCc2cc4c(cc2[C@H]13)OCO4 [Omacetaxine mepesuccinate] |  |  |  | 0.037 µM | 0.017 µM | 0.059 µM | 
26 | Cc1[nH]c2ccccc2c1CCNCc1ccc(/C=C/C(=O)NO)cc1 [Panobinostat] | 0.935 µM | -74% | 0.372 µM | 0.118 µM | 0.148 µM |  | 
27 | COc1cc(NC(C)CCCN)c2ncccc2c1 (centres unmarked) [Primaquine] |  |  | 17.8 µM |  |  |  | IC50 ([2]; Plasmodium falciparum, DD2, read-out: Dd2-gametocytes IC50, strain profiling, 11 concentrations, 1:3 dilution, three times): 1.08 µM; IC50 ([2]; read-out: Dd2-gametocytes IC50, strain profiling, 11 concentrations, 1:3 dilution, three times, listed as PQ): 1.08 µM; IC50 ([3]; read-out: HB3-gametocytes IC50, strain profiling, 11 concentrations, 1:3 dilution, three times, listed as PQ): 0.68 µM
28 | COc1ccc(C[C@H](N)C(=O)N[C@H]2[C@@H](O)[C@H](n3cnc4c(N(C)C)ncnc43)O[C@@H]2CO)cc1 [Puromycin] | 1.05 µM | -71% | 11.8 µM | 2.64 µM | 1.48 µM |  | 
29 | COc1ccc2nc3cc(Cl)ccc3c(Nc3cc(CN4CCCC4)c(O)c(CN4CCCC4)c3)c2n1 [Pyronaridine] |  |  |  | 6.62 µM | 2.64 µM | 1.87 µM | 
30 | C/C=C1\NC(=O)[C@H]2CSSCC/C=C/[C@H](CC(=O)N[C@H](C(C)C)C(=O)N2)OC(=O)[C@H](C(C)C)NC1=O [Romidepsin] |  | -98% | 0.074 µM |  |  | 0.264 µM | IC50 [1, 16]: 0.637 µM; IC50 [2, 8]: 0.187 µM; IC50 [3, 12]: 0.148 µM
31 | Cl.Cl.Cl.Cl.Cl.Cl.N.N.N.N.N.N.N.N.N.N.N.N.N.N.[O-2].[O-2].[Ru+3].[Ru+3].[Ru+4] [Ruthenium red] |  |  |  |  |  |  | IC50 [1, 13]: 0.935 µM; IC50 [2, 14]: 0.526 µM; IC50 [3, 15]: 0.264 µM
32 | CC[C@@H](C(=O)[C@@H](C)[C@@H](O)[C@H](C)[C@@H]1O[C@@H]([C@@H](CC)C(=O)O)CC[C@@H]1C)[C@H]1O[C@]2(C=C[C@@H](O)[C@]3(CC[C@@](C)([C@H]4CC[C@](O)(CC)[C@H](C)O4)O3)O2)[C@H](C)C[C@@H]1C [Salinomycin sodium] |  | -69% | 29.6 µM |  |  | 0.118 µM | IC50 [1, 16]: 0.194 µM; IC50 [2, 8]: 0.296 µM; IC50 [3, 12]: 0.372 µM
33 | CCN(CC)C(=S)SSC(=S)N(CC)CC [Tetraethylthiuram disulfide] |  |  |  |  |  |  | IC50 [1, 13]: 0.096 µM; IC50 [2, 14]: 0.296 µM; IC50 [3, 15]: 0.148 µM
34 | CC1=C(CO)C(=O)O[C@@H]([C@@H](C)[C@H]2CC[C@H]3[C@@H]4C[C@H]5O[C@]56[C@@H](O)C=CC(=O)[C@]6(C)[C@H]4CC[C@]23C)C1 [Withaferin A] | 0.372 µM | -80% | 9.35 µM | 0.372 µM | 1.33 µM |  | 
35 | COCCn1c2c([n+](Cc3cnccn3)c1C)C(=O)c1ccccc1C2=O [YM155] | 0.372 µM | -92% | 4.69 µM | 0.526 µM | 0.304 µM |  | 
36 | Salinomycin monosodium |  |  |  |  |  |  | IC50 [1, 13]: 0.194 µM; IC50 [2, 14]: 0.296 µM; IC50 [3, 15]: 0.469 µM
